These molecules were tested on E. multilocularis metacestodes (assay: PGI assay: phosphoglucose isomerase release from damaged metacestodes). Conditions: 10 μM, 5 days, single wells, relative to DB1127 (10 μM).
Format: cell-based, Echinococcus multilocularis
Procedure, shortened: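 E. multilocularis metacestode vesicles (strain H95, grown in BALB/c mice, 2–4 mm diameter) were exposed in vitro to compounds for 5 days. Damage was read as phosphoglucose isomerase released into the medium. Initial screening used 10 μM in single wells, with 0.1% DMSO as negative control. EC50 values were derived from this read-out.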

In order of rising “PGI (% of DB1127 at 10 uM)” value:
1. FC(F)(F)c1cccc(CNC2CCN(CCc3ccccc3)CC2)c1 [MMV665979]  -152.47%
2. CCOc1cc(Cl)c(C(C)NC(=O)c2ccccc2)cc1OCC (stereo not shown) [MMV665800]  -123.29%
3. Cc1cc(NCCN2CCCCC2)c2ccc3ccccc3c2n1 [MMV006203]  -66.37%
4. Cl.Oc1ccccc1CNCC12CC3CC(CC(C3)C1)C2 [MMV020788]  -57.58%
5. Cc1ccc(CN2CCC(C(=O)Nc3ccc(-c4cc5ccccc5[nH]4)cc3)CC2)o1 [MMV666071]  -52.95%
6. c1ccc(Cn2c(N=Nc3c(Nc4ccccc4)ccc4ccccc34)nc3ccccc32)cc1 [MMV666023]  -50.58%
7. CCN(CC)CCNc1ncnc2c1[nH]c1ccc(Cl)cc12 [MMV396703]  -47.33%
8. COc1ccc(NC(=O)C2c3ccccc3C(=O)N(CC(C)C)C2c2cccs2)cc1Cl (stereo not shown) [MMV000642]  -45.07%
9. COc1ccccc1CNC(=O)CCn1c(=O)[nH]c2ccsc2c1=O [MMV019066]  -44.92%
10. Cc1ccc2cc3c(N)c4c(C)ccc(C)c4nc3nc2c1 [MMV666079]  -43.85%
11. Cc1ccc(-c2cc3c(SCC(=O)Nc4cc(C(F)(F)F)ccc4Cl)nccn3n2)cc1 [MMV396680]  -41.44%
12. CCOC(=O)c1c(C)n(-c2ccc(Cl)cc2)c2ccc(OC(=O)C=Cc3ccccc3)cc12 [MMV666600]  -39.04%
13. CC(NCc1ccccc1)c1cc(Cl)ccc1O (stereo not shown) [MMV665789]  -38.95%
14. Cc1ccc(N2C(=O)C3C(C2=O)C2(c4ccccc4)C(=O)C3(c3ccccc3)C(c3ccccc3)=C2c2ccccc2)cc1 (stereo not shown) [MMV666062]  -37.70%
15. COc1ccc(C(=O)Nc2ccc3nc(N4CCCCC4)cc(C)c3c2)cc1OC [MMV019758]  -36.67%
16. CCN(CC)CCNc1ncnc2c1[nH]c1ccc(Br)cc12 [MMV006545]  -33.20%
17. COc1ccc2nc(C)cc(Nc3ccc(Cl)cc3)c2c1 [MMV007875]  -32.27%
18. CCCCCCC(O)(c1ccc(F)cc1)C(CN1CCOCC1)c1ccccc1.Cl (stereo not shown) [MMV000621]  -30.63%
19. CCN1CCN(Cc2ccc(NC(=O)c3cc4ccc5cccnc5c4[nH]3)cc2)CC1 [MMV020548]  -26.47%
20. COc1ccc2nc(N)nc(C)c2c1 [MMV665897]  -26.21%
21. CN(C)CCCNc1c2ccccc2nc2ccccc12 [MMV000448]  -25.46%
22. Cc1ccc(Nc2nc(-c3ccccn3)cs2)cc1 [MMV007907]  -25.32%
23. CCOc1ccc(-c2nonc2NC(=O)c2cccc(C)c2)cc1OCC [MMV665805]  -25.24%
24. CCCCN(CCCC)S(=O)(=O)c1ccc(NC(=O)c2ccco2)cc1 [MMV007881]  -23.46%
25. COc1ccc(-c2nc(N3CCN(C(=O)C4CCCCC4)CC3)c3c4c(sc3n2)CCCC4)cc1 [MMV396594]  -22.30%
26. CCC1(C)CC(CCNCc2ccccc2O)(c2ccc(C)cc2)CCO1 (stereo not shown) [MMV019406]  -21.13%
27. CC(C)(C)c1ccc(C(=O)Nc2nc3ccccc3s2)cc1 [MMV142383]  -17.15%
28. Clc1ccc2c(N3CCCC3)ccnc2c1 [MMV007363]  -15.91%
29. CCCCOc1ccc(C(=O)Nc2cc(C)on2)cc1 [MMV007906]  -15.33%
30. O=C(O)C1Cc2c([nH]c3ccccc23)C(c2ccc(Cl)cc2Cl)N1 (stereo not shown) [MMV008138]  -14.05%
31. CN(C)CCNc1cc(-c2ccccc2)nc2ccccc12 [MMV006704]  -13.50%
32. COc1ccc(OC)c(C2C3=C(CC(C)(C)CC3=O)N(c3ccc(Cl)c(Cl)c3)C3=C2C(=O)CC(C)(C)C3)c1 [MMV007208]  -12.95%
33. COc1ccc(C2C(C(=O)Nc3cccc(OC)c3)c3ccccc3C(=O)N2C2CCCCC2)cc1 (stereo not shown) [MMV008455]  -12.94%
34. COc1ccc(CCN2C(=O)c3[nH]nc(-c4cc(Cl)c(C)cc4O)c3C2c2ccccc2F)cc1 (stereo not shown) [MMV396717]  -12.02%
35. COc1ccc(/C=C2/SC(=Nc3ccccc3)NC2=O)cc1 [MMV665836]  -11.27%
36. COc1ccc(-c2cc3c(nn2)-c2ccccc2C3=O)cc1 [MMV666026]  -10.04%
37. CCOC(=O)C1=C(C)N=c2sc(=Cc3ccccc3O)c(=O)n2C1c1ccc(OC)c2ccccc12 (stereo not shown) [MMV666604]  -9.67%
38. CN(C)CCCNCc1ccc(-c2ccc(F)c(Cl)c2)o1.Cl [MMV020505]  -8.77%
39. Oc1c(CN2CCN(c3ccccc3F)CC2)cc(Br)c2cccnc12 [MMV000760]  -8.56%
40. CCOC(=O)c1c[nH]c2c(CC)cccc2c1=O [MMV498479]  -7.93%
41. COc1ccc(N2CCN(C(CNC(=O)C3CCCCC3)c3ccc4c(c3)OCO4)CC2)cc1 (stereo not shown) [MMV019662]  -7.72%
42. Cc1cc(N2CCN(C3CCCC3)CC2)n2c(nc3ccccc32)c1C#N [MMV006706]  -7.43%
43. COc1ccc(C(=O)Nc2nonc2-c2ccc(OC)c(OC)c2)cc1Cl [MMV011567]  -5.45%
44. Cc1ccnc(NC(c2cccc(OCc3ccccc3)c2)c2ccc3cccnc3c2O)c1 (stereo not shown) [MMV000720]  -5.36%
45. CN(N=O)C1=C(NC2CCCCC2)C(=O)c2ccccc2C1=O [MMV667492]  -5.36%
46. Oc1ccc(-c2nc(-c3ccc4oc5ccc(-c6[nH]c(-c7ccc(O)cc7)nc6-c6ccccc6)cc5c4c3)c(-c3ccccc3)[nH]2)cc1 [MMV000753]  -5.15%
47. CN1CCN(c2nc(Nc3ccc(O)cc3)nc3ccccc23)CC1.Cl [MMV000986]  -4.90%
48. CCN(CC)CCNc1ccnc2cc3ccccc3cc12 [MMV006303]  -4.34%
49. CCOc1ccc(CN2CCN(CC(O)COc3ccc(OCC(O)CN4CCN(Cc5ccc(OCC)cc5)CC4)cc3)CC2)cc1 (stereo not shown) [MMV007092]  -3.58%
50. CCOc1ccc(N2C(N)=NC(N)=NC2(C)C)cc1.Cl [MMV667486]  -3.47%
51. CCCn1c(=N)c(C(=O)NC2CCCCC2)cc2c(=O)n3cccc(C)c3nc21 [MMV008829]  -2.96%
52. COc1ccc(CN2CCCC(C(=O)c3ccc(C(F)(F)F)cc3)C2)c(O)c1 (stereo not shown) [MMV666060]  -1.92%
53. CCCCCCc1cc2cc(-c3nc4ccccc4[nH]3)c(=Nc3ccccc3C)oc2cc1O [MMV666597]  -1.88%
54. COc1ccc2nc(C)cc(Nc3ccccc3O)c2c1 [MMV274073]  -1.78%
55. CC1CCN(Cc2c(O)ccc3cc(-c4nc5ccccc5s4)c(=O)oc23)CC1 [MMV009127]  0.35%
56. COc1ccc(C2N(C)c3ccccc3N2C)cc1 [MMV666075]  0.50%
57. Cc1cc(N(C)C)nc(Nc2ccc(NC(=O)Nc3ccccc3)cc2)n1 [MMV020243]  0.64%
58. CC(=O)Nc1nnc(SCc2c(C)cc(C(C)(C)C)cc2C)s1 [MMV020700]  1.07%
59. Cc1ccc(F)cc1NC(=O)c1cc(Cl)ccc1Nc1ccccc1 [MMV007275]  1.44%
60. COc1cc(C(=O)ON=C(N)Cc2cccc3ccccc23)cc(OC)c1OC [MMV666687]  1.57%
61. CN1CCN(c2ccc(Nc3c4ccccc4nc4ccccc34)cc2)CC1 [MMV006172]  2.41%
62. Br.CCn1c2c(c(=N)c3c1CCC3)CCCC2 [MMV000340]  2.86%
63. CCCCCCc1cc(O)c2c3c(c(=O)oc2c1)CCC(C)C3 (stereo not shown) [MMV665987]  4.36%
64. O=C(CCc1ccccc1)c1ccccc1OCC(O)CN1CCCCC1 (stereo not shown) [MMV009015]  4.79%
65. COc1ccc(C(=O)Nc2ccc(Cl)cc2C(=O)Nc2ccncc2)cc1 [MMV665799]  5.52%
66. OC(CNC1CCCC1)Cn1c2ccccc2c2ccccc21 (stereo not shown) [MMV000848]  6.03%
67. Cc1cc(NC(=O)c2ccc(-c3ccccc3)cc2)no1 [MMV018984]  6.32%
68. COc1cccc(C2(C)Nc3ccccc3-c3nc4ccccc4n32)c1 (stereo not shown) [MMV396719]  6.50%
69. COc1ccc(-c2cn3c(C(=O)Nc4ccccc4Cl)c(-c4ccccc4)c4c3n2CCCC4)cc1 [MMV020403]  8.35%
70. CCc1ccc(Nc2cc(C)nc3nc(C)nn23)cc1 [MMV007374]  12.73%
71. Cc1ccc(Nc2nc(N)c3ccccc3n2)cc1Cl [MMV011522]  12.79%
72. O=C(Cc1ccccc1)NC(c1ccc(Cl)cc1)c1c(O)ccc2ccccc12 (stereo not shown) [MMV665972]  15.67%
73. CCOC(=O)C1=CN(C)C=C(C(=O)OCC)C1c1cc(Br)c(OCC)c(OC)c1 [MMV006656]  16.40%
74. COCCNCC(O)Cn1c2ccc(Cl)cc2c2cc(Cl)ccc21 (stereo not shown) [MMV019017]  20.81%
75. CN(C)c1ccc(C=Cc2nc(=O)c3ccccc3o2)cc1 [MMV006309]  24.63%
76. OC(CNC1CCCCC1)Cn1c2ccccc2c2ccccc21 (stereo not shown) [MMV009063]  29.02%
77. COc1ccccc1NC1=C(N2CCCCC2)C(=O)c2ccccc2C1=O [MMV085203]  31.65%
78. COc1ccc(C2c3ccc4ccccc4c3Oc3ncn(CCCN(C)C)c(=N)c32)cc1 (stereo not shown) [MMV667491]  39.81%
79. Cc1nc2ccccc2c(O)c1CC=C(Cl)Cl [MMV665994]  45.96%
80. CCCOCc1cc(CN2CCN(c3cccc(Cl)c3)CC2)c(O)c2ncccc12 [MMV000787]  45.98%
81. COc1ccc2c(c1)OC(O)(C(F)(F)C(F)(F)F)CC2=O (stereo not shown) [MMV007839]  50.23%
82. OC(CNC1CCCCC1)Cn1c2ccc(I)cc2c2cc(I)ccc21 (stereo not shown) [MMV665882]  54.36%
